Tests used:
[1] = molecular target: PKR K410E (Homo sapiens, UniProt P30613, K410E); assay: PKR Mutant Assay (K410E), LDH-coupled, absorbance 340 nm; assay type: biochemical; conditions: mutant PKR K410E enzyme activation
Protocol: (§1) PKR (WT or mutant) enzyme stock solution was diluted to prepare a 1.25× Reaction Mix (without ADP). 1 μL of test compound was first added to the wells followed by 40 μL of 1.25× Reaction Mix (without ADP) and incubated at room temperature (25° C.) for 60 min. The reaction was initiated with 10 μL ADP, bringing the final Reaction Mix to 1x, and the reaction progress was measured as changes in absorbance at 340 nm wavelength at room temperature.
(§2) Test compound preparation: Test compounds were prepared at 50× final concentration in DMSO. 1 to 3 dilutions were made for 11 points (for example 50 μL of 5000 μM compound was added to 100 μL 100% DMSO to yield a 1667 μM, 50 μL of this added to 100 μL DMSO to yield 556 μM, and so forth). The compounds were added to the assay as a 1 to 50 dilution (1 μL in 50 μL) to yield a top concentration of 100 μM, decreasing 3-fold for 11 points.
(§3) Reaction Mix: PKR (1.25-1000 ng/well, 0.025-20 μg/ml depending on the PKR mutant), ADP (0.05-2.3 mM depending on the PKR mutant), PEP (0.031-2 mM depending on the PKR mutant), NADH (180 μM), LDH (0.005 U/μL, Sigma #L3888), 1 mM DTT, 0.03% BSA in 1× Reaction Buffer
(§4) Reaction Buffer: 100 mM KCl, 50 mM Tris pH 7.5, 5 mM MgCl2.

[2] = molecular target: PK R510Q (Homo sapiens, UniProt P30613, R510Q); assay: PKR Mutant Assay (R510Q), LDH-coupled, absorbance 340 nm; assay type: biochemical; conditions: mutant PKR R510Q enzyme activation
Protocol: as §1, §2, §3, §4

[3] = molecular target: PKR WT (Homo sapiens, UniProt P30613); assay: PKR enzyme assay (WT), LDH-coupled, absorbance 340 nm; assay type: biochemical; conditions: wild type PKR enzyme activation
Protocol: as §1, §2, §3, §4

[4] = tested on: RBCs; assay: Cell Based ATP Assay in purified red blood cells (Cell-Titer-Glo); parameters: species or system human; conditions: wild type PKR, ATP levels in RBCs, overnight at 37° C.; for AC50: Homo sapiens, Erythrocyte
Protocol: Fresh blood drawn from healthy volunteers into K2EDTA tubes was collected. Whole blood was pelleted by spinning at 500 g for 10 minutes. The transfusion bag port was cut off Purecell leukocyte reduction neofilter (Fisher NC0267633) one (1) inch above filter. A 10 ml syringe barrel was attached to the remaining cut tubing attached to the neofilter. The plasma layer was removed from the pellet of the whole blood and the pellet was resuspended in 2× volume of phosphate buffered saline (PBS). 9 ml re-suspended blood cell pellet was transferred to a 10 ml syringe that was attached to the neofilter. The whole blood was allowed to gravity flow through filter until all fluid ran through upper tubing into a filter disc. The plunger was added to the syringe. The filter was inverted and air was plunged through the syringe filter system. A new 5 ml syringe was used to remove filtered RBCs from the bag by the syringe port. Purified RBCs were transferred to a 5 ml snap cap tube that had been incubated on ice. The 5 ml snap cap tube was spun at 500 g for 10 minutes at 15 C. Supernatant was aspirated and resuspended in AGAM (1×PBS, 1% glucose, 170 mg/L adenine, 5.25 g/L mannitol) at a density of 4×10^9 cells/mL.
For cell based ATP assays, the compound as described herein was prepared in 100% DMSO as a 10 mM stock. Serial dilutions (1:4) were performed in 96-well V-bottom storage plate and then added 1:100 to 96-well V-bottom plates containing AGAM. 10 μL/well of compound diluted in AGAM was added to black clear bottom assay plates. RBCs were diluted in AGAM media to a density of 1×10^7 cells/mL before added 90 μL/well to black clear bottom assay plates (final compound concentration at 0.1% DMSO concentration). Assay plates were sealed using aluminum foil seals and incubated overnight at 37° C. in a humidified chamber. ATP levels were read out using Cell-Titer-Glo (Promega).

Sequence of PKR WT (P30613 whole entry): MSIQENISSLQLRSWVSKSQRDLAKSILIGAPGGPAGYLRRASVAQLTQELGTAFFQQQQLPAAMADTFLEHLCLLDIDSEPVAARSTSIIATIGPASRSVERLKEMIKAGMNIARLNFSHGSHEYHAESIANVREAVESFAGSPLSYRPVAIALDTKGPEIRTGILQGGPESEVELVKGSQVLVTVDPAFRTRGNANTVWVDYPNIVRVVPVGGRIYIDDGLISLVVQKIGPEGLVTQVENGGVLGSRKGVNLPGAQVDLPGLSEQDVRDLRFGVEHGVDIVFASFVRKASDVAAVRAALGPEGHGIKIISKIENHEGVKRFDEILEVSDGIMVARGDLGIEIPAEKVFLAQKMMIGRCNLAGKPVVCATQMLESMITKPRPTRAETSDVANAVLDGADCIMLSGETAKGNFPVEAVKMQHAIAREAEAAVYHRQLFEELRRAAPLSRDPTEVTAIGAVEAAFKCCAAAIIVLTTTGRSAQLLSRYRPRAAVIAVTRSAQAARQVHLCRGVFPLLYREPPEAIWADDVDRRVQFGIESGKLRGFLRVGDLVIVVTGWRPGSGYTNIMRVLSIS
Sequence of PK R510Q (P30613 whole entry R510Q): as the sequence (P30613 whole entry) above, with R510Q counted along it
Sequence of PKR K410E (P30613 whole entry K410E): as the sequence (P30613 whole entry) above, with K410E counted along it

| SMILES | AC50 [1] [µM] | PK R510Q AC50 [2] | PKR WT AC50 [3] | AC50 [2] [µM] | AC50 [3] [µM] | PKR K410E AC50 [1] | AC50 [4] [µM] | Cell based ATP assay AC50 [4] |
| --- | --- | --- | --- | --- | --- | --- | --- | --- |
| COC(=O)c1ccc2c3cnn(Cc4cccc(OC)c4)c(=O)c3n(C)c2c1 [Cpd 40] | < 0.3 | No Fit | No Fit |  |  |  |  |  |
| COc1cccc(Cn2ncc3c(c(C)n4cc(C)sc34)c2=O)c1 [Cpd 9] | < 0.3 |  |  | < 0.3 | < 0.3 |  | > 1 |  |
| Cc1c2c(=O)n(Cc3ccc4[nH]ncc4c3)ncc2c2sc(Cc3ccccn3)cn12 [Cpd 18] | < 0.3 |  |  | < 0.3 | < 0.3 |  | ≤ 1 |  |
| COc1cccc(Cn2ncc3c4ccc(C#N)cc4n(C)c3c2=O)c1 [Cpd 47] | < 0.3 |  |  | < 0.3 | 0.301 to 0.8 |  |  |  |
| Cc1c2c(=O)n(Cc3ccn(C)n3)ncc2n2cc(Cc3cc[nH]n3)sc12 [Cpd 24] | < 0.3 |  |  | < 0.3 | < 0.3 |  | ≤ 1 |  |
| Cn1ccc(Cn2ncc3c4cc(Cc5cscn5)ncc4n(C)c3c2=O)n1 [Cpd 67] | < 0.3 |  |  | < 0.3 | < 0.3 |  | ≤ 1 |  |
| Cc1c2c(=O)n(Cc3ccccn3)ncc2c2sc(Cc3cscn3)cn12 [Cpd 16] | < 0.3 |  |  | < 0.3 | < 0.3 |  | ≤ 1 |  |
| Cn1c2cc(Cc3cn[nH]c3)sc2c2cnn(Cc3cccc4[nH]ncc34)c(=O)c21 [Cpd 8] |  |  |  | < 0.3 | < 0.3 | No Fit | ≤ 1 |  |
| COc1cccc(Cn2ncc3c4nn(Cc5ccccc5)cc4n(C)c3c2=O)c1 [Cpd 28] | 0.301 to 0.8 |  |  | < 0.3 | 0.301 to 0.8 |  |  |  |
| Cc1c2c(=O)n(Cc3cscn3)ncc2c2sc(Cc3cccc4c[nH]nc34)cn12 [Cpd 20] | < 0.3 |  |  | < 0.3 | < 0.3 |  | ≤ 1 |  |
| Cn1cc(S(=O)(=O)c2ccc3c4cnn(Cc5cccc(C(N)=O)c5)c(=O)c4n(C)c3c2)cn1 [Cpd 56] | < 0.3 |  |  | < 0.3 | 0.301 to 0.8 |  | > 1 |  |
| COc1cccc(Cn2ncc3c(c(C(F)(F)F)n4cc(C)sc34)c2=O)c1 [Cpd 10] |  | No Fit |  |  | < 0.3 | No Fit |  | No Fit |
| COc1cccc(Cn2ncc3c4c(cnn4C)n(C)c3c2=O)c1 [Cpd 27] |  | No Fit | No Fit |  |  | No Fit |  |  |

Now from value to compound, other results behind:

| AC50 [1] [µM] | PK R510Q AC50 [2] | PKR WT AC50 [3] | AC50 [2] [µM] | AC50 [3] [µM] | PKR K410E AC50 [1] | SMILES | AC50 [4] [µM] | Cell based ATP assay AC50 [4] |
| --- | --- | --- | --- | --- | --- | --- | --- | --- |
| < 0.3 |  |  | < 0.3 | < 0.3 |  | COc1cccc(Cn2ncc3c(c(C#N)n4cc(C)sc34)c2=O)c1 [Cpd 11] |  | No Fit |
| > 0.8 |  |  | > 0.8 | > 0.8 |  | Cc1c2c(=O)n(Cc3ccn(C)n3)ncc2n2cc(CO)sc12 [Cpd 23] | > 1 |  |
| > 0.8 |  |  | < 0.3 | 0.301 to 0.8 |  | Cn1c2cc(S(=O)(=O)c3cc[nH]n3)ccc2c2cnn(Cc3cccc(C(N)=O)c3)c(=O)c21 [Cpd 50] | > 1 |  |
| < 0.3 |  |  | < 0.3 | < 0.3 |  | Cc1c2c(=O)n(Cc3cccc(N)n3)ncc2c2sc(Cc3cc[nH]n3)cn12 [Cpd 17] | ≤ 1 |  |
| < 0.3 |  |  | < 0.3 | < 0.3 |  | Cn1c2cc(Cc3cccc4cn[nH]c34)sc2c2cnn(Cc3cscn3)c(=O)c21 [Cpd 6] | ≤ 1 |  |
|  | No Fit | No Fit |  |  | Inhibition | COc1cccc(Cn2ncc3c4cccc(Br)c4n(C)c3c2=O)c1 [Cpd 33] |  |  |
| < 0.3 |  |  | < 0.3 | < 0.3 |  | COc1cccc(Cn2ncc3c(c(Br)n4cc(C)sc34)c2=O)c1 [Cpd 68] | > 1 |  |
| < 0.3 |  |  | < 0.3 | < 0.3 |  | Cc1c2c(=O)n(Cc3ccn(C)n3)ncc2c2sc(Cc3cc[nH]n3)cn12 [Cpd 15] | ≤ 1 |  |
| 0.301 to 0.8 |  |  | < 0.3 | 0.301 to 0.8 |  | COc1cccc(Cn2ncc3c4ccncc4n(C)c3c2=O)c1 [Cpd 64] |  |  |

— patent US20220127267A1, “THIENO[3,2-B] PYRROLE[3,2-D]PYRIDAZINONE DERIVATIVES AND THEIR USE AS PKM2 DERIVATIVES FOR THE TREATMENT OF CANCER, OBESITY AND DIABETES RELATED DISORDERS” (Agios Pharmaceuticals, Inc., priority 2019, published 2022)
